According to PMC4814829, “Design, synthesis, crystallization and biological evaluation of new symmetrical biscationic compounds as selective inhibitors of human Choline Kinase α1 (ChoKα1)” (Scientific Reports, 2016):

Key:
MDA-MB-231 cells [1] = test: Antiproliferative MTT assay; type: cell-based; conditions: Homo sapiens, 72 h, mean ± SEM
Protocol: (§1) Human T-cell leukemia (Jurkat), human B-cell leukemia (RS 4,11) and human promyelocytic leukemia (HL-60) cells were grown in RPMI-1640 medium (Gibco, Milan, Italy). Breast adenocarcinoma (MCF-7 and MDA-MB-231), human non-small cell lung carcinoma (A549), human cervix carcinoma (HeLa), human prostate adenocarcinoma (PC-3), and human colon adenocarcinoma (HT-29) cells were grown in DMEM medium (Gibco, Milan, Italy). Both media were supplemented with 115 units/mL of penicillin G (Gibco, Milan, Italy), 115 μg/mL of streptomycin (Invitrogen, Milan, Italy) and 10% fetal bovine serum (Invitrogen, Milan, Italy). Stock solutions (10 mM) of the different compounds were obtained by dissolving them in DMSO. Individual wells of 96-well tissue-culture microtiter plates were inoculated with 100 μL of complete medium containing 8 × 10^3 cells. The plates were incubated at 37 °C in a humidified 5% CO2 incubator for 18 h prior to the experiments. After medium removal, 100 μL of fresh medium containing the test compound at different concentrations was added to each well and incubated at 37 °C for 72 h. The percentage of DMSO in the medium in no case exceeded 0.25%.

PC-3 cells = test: Antiproliferative MTT assay; type: cell-based; conditions: Homo sapiens, 72 h, mean ± SEM
Protocol: as §1

HL-60 cells = test: Antiproliferative MTT assay; type: cell-based; conditions: Homo sapiens, 72 h, mean ± SEM
Protocol: as §1

A549 cells = test: Antiproliferative MTT assay; type: cell-based; conditions: Homo sapiens, 72 h, mean ± SEM
Protocol: as §1

Jurkat cells [2] = test: Antiproliferative MTT assay; type: cell-based; conditions: Homo sapiens, 72 h, mean ± SEM
Protocol: as §1

RS4,11 cells = test: Antiproliferative MTT assay; type: cell-based; conditions: Homo sapiens, 72 h, mean ± SEM
Protocol: as §1

HT-29 cells = test: Antiproliferative MTT assay; type: cell-based; conditions: Homo sapiens, 72 h, mean ± SEM
Protocol: as §1

MCF-7 cells [3] = test: Antiproliferative MTT assay; type: cell-based; conditions: Homo sapiens, MCF7, 72 h, mean ± SEM
Protocol: as §1

HeLa cells = test: Antiproliferative MTT assay; type: cell-based; conditions: Homo sapiens, 72 h, mean ± SEM
Protocol: as §1

Human fibroblasts = test: Antiproliferative assay in non-tumoral cells; type: cell-based; conditions: Fibroblast, mean ± SEM
Source text: Human fibroblasts from foreskin were isolated as previously described[58] and maintained in DMEM medium with 10% fetal bovine serum added.

purified human ChoKα1 = purified human ChoKα1 (Homo sapiens, UniProt P35790); test: Determination of human choline kinase α1 activity ([methyl-14C]choline incorporation into phosphocholine); type: biochemical; conditions: mean ± SEM, three independent experiments; read-out: IC50 ChoKα1 purified
Protocol: The effect of the different inhibitors on human choline kinase (ChoK) was assayed in ChoKα1 purified as previously described[32]. In each experiment DMSO-assays were always run in parallel as a control. DMSO in no case exceeded a concentration of 0.1% in order to avoid unspecific ChoK inhibition. ChoK activity was assayed by measuring the rate of incorporation of ^14C from [methyl-^14C]choline into phosphocholine both in the presence or absence of different inhibitor concentrations. Briefly, the final reaction mixture contained 100 mM Tris (pH 8.5), 10 mM MgCl2, and 10 mM ATP, and 20 ng of purified ChoKα1. […] The assay was stopped by immersing the reaction tubes in boiling water for 3 min. Aliquots of the reaction mixture were applied to the origin of Silica Gel plates in the presence of phosphocholine (0.1 mg) and choline (0.1 mg) as carriers. The chromatography was developed in methanol/0.6% NaCl/28% NH4OH in water (50:50:5, v/v/v) as solvent. Phosphocholine was visualized under exposure to iodine vapor and the corresponding spot was scraped and transferred to scintillation vials for measurement of radioactivity by a Beckman 6000-TA (Madrid, Spain) liquid-scintillation counter. At least three experiments were performed in all assays.

PBL (+Pha) = test: Antiproliferative assay in non-tumoral cells (MTT); type: cell-based; conditions: Homo sapiens, non-tumoral cells stimulated with phytohematoagglutinin, 72 h, mean ± SEM
Protocol: (§2) Peripheral mononuclear cells (PBMC) from healthy donors were obtained by separation on Lymphoprep (Fresenius KABI Norge AS) gradient. After extensive washing, cells were resuspended (1 × 10^6 cells/mL) in RPMI-1640 with 10% fetal bovine serum and incubated overnight. For cytotoxicity evaluations in proliferating PBL cultures, non-adherent cells were resuspended at 5 × 10^5 cells/mL in growth medium, containing 2.5 μg/mL PHA (Irvine Scientific). Different concentrations of the test compounds were added, and viability was determined 72 h later by the MTT test. For cytotoxicity evaluations in resting PBL cultures, non-adherent cells were resuspended (5 × 10^5 cells/mL) and treated for 72 h with the test compounds, as described above.

PBL (resting) = test: Antiproliferative assay in non-tumoral cells (MTT); type: cell-based; conditions: Homo sapiens, 72 h, mean ± SEM
Protocol: as §2

HUVEC = test: Antiproliferative assay in non-tumoral cells; type: cell-based; conditions: Homo sapiens, mean ± SEM
Protocol: Human Umbilical Vein Endothelial cells (HUVEC), were prepared from human umbilical-cord veins, as previously described. The adherent cells were maintained in M200 medium added by LSGS (low serum growth supplement), containing FBS, hydrocortisone, hEGF, bFGF, heparin, gentamycin/amphotericin (Life Technologies, Monza, Italy). Once confluent, the cells were detached by trypsin–EDTA solution and used in experiments from the first to sixth passages.

MDA-MB-231 cells [4] = test: Annexin-V/PI assay; type: cell-based, human; conditions: MDA-MB-231, 72 h; positive controls Cis-Pt 50 μM, Etoposide 5 μM
Protocol: (§3) Surface exposure of PS on apoptotic cells was measured by flow cytometry with Cytomics FC500 (Beckman Coulter) by adding simultaneously annexin-V conjugated to fluorescein isothiocyanate (FITC) and PI to cells according to the manufacturer′s instructions (Annexin-V Fluos, Roche Diagnostic).

Jurkat cells [5] = test: Annexin-V/PI assay; type: cell-based, human; conditions: 72 h, positive controls Cis-Pt 50 μM, Etoposide 5 μM
Protocol: as §3

MCF-7 cells [6] = test: Annexin-V/PI assay; type: cell-based, human; conditions: MCF-7, 72 h; positive controls Cis-Pt 50 μM, Etoposide 5 μM
Protocol: as §3

[7] = test system: breast- and colon-cancer cells; parameters: method as in earlier work; conditions: 15 μM; ref 15 (Sanchez-Lopez et al.); cited from earlier work
MDA-MB-231 cells [8] = test: Cell-cycle distribution analysis (PI, flow cytometry); type: cell-based, human; conditions: MDA-MB-231
Protocol: [The source words this procedure for another cell line and reports this cell line under the same test.] For flow-cytometric analysis of the DNA content, 5 × 10^5 HeLa or Jurkat cells in exponential growth were treated with different concentrations of the test compounds for 24 and 48 h. After the incubation period, the cells were collected, centrifuged, and fixed with ice-cold ethanol (70%). The cells were then treated with lysis buffer containing RNAse A and 0.1% Triton X-100, and then stained with propidium iodide (PI). Samples were analyzed in a Cytomics FC500 flow cytometer (Beckman Coulter). DNA histograms were analyzed using MultiCycle for Windows (Phoenix Flow Systems).

[9] = Solubility in crystallization mother liquor (crystal soaking); type: physicochemical; conditions: 20% PEG 3350, 0.25 M potassium isothiocyanate, 10% DMSO, compound 50 mM
Protocol: ChoKα1 at 20 mg/ml in buffer 25 mM Tris/HCl, 150 mM NaCl pH 7.5 was used as the protein solution. The sitting-drop vapor-diffusion method was used to produce apo-crystals by mixing 0.5 μl of the protein solution and an equal volume of mother liquor (crystals appeared in 20% polyethylene glycol [PEG] 3350 and 0.25 M potassium isothiocyanate). Tetragonal crystals (space group P43212) grew within in 3–4 days and were soaked in 2 μL of the mother liquor with 0.2 μL of a dilution 500 mM of compounds 10a, 10g, 10h, 10k, and 10l in DMSO (DMSO was at 10% final concentration in the mix whereas compounds were at 50 mM) for two days. Only crystals soaked with compound 10a contained the compound. The crystals used in this study were cryoprotected in mother-liquor solutions containing 20% ethylenglycol and frozen in a nitrogen gas stream cooled to 100 K.

human ChoKα1 = target: T1, human ChoKα1 (Homo sapiens, UniProt P35790); test: Tryptophan fluorescence quenching; type: binding; conditions: mean ± S.D. of at least three independent experiments; 25 °C, enzyme 1 μM; read-out: HsChoKα1 Kd
T1 construct: made in house
Protocol: All compounds were prepared in 100% DMSO. Their Kds against human ChoKα1 were measured by monitoring the quenching of tryptophan fluorescence. All experiments were performed in a Cary Eclipse spectrofluorometer (Varian) at 25 °C with the enzymes at 1 μM, and concentrations of compounds varying from 0.1 to 5 μM for ChoKα1 in 25 mM Tris, 150 mM NaCl, pH 7.5. Fluorescence emission spectra were recorded in the 300–400 nm range with an excitation wavelength of 280 nm, with slit width of 5 nm. Controls were determined by incubating the enzymes with equivalent amounts of DMSO. As indicated previously, data analysis was performed in Prism (GraphPad software) considering a model with a single binding site (Eq. 1), where F0 is the intrinsic fluorescence of the enzyme in the absence of quencher (Q), F1 is the observed fluorescence at a given quencher concentration, fa is the fractional degree of fluorescence, and Kd is the dissociation constant.

purified human ChoKα1, sequence (P35790 whole entry): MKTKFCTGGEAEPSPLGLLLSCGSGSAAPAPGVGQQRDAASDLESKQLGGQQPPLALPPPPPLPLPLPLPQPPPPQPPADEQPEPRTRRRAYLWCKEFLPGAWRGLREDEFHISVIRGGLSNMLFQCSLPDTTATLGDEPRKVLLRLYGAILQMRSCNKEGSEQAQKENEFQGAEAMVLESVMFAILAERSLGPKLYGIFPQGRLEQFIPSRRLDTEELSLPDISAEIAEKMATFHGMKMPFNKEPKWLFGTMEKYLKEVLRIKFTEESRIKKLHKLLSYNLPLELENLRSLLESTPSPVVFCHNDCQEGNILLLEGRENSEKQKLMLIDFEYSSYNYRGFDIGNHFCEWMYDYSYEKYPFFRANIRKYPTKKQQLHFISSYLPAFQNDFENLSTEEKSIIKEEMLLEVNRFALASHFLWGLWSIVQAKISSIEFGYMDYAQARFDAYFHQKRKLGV
T1 sequence (P35790 whole entry): as above

Row | Structure (SMILES) | GI50 (MDA-MB-231 cells [1]) [nM] | GI50 (PC-3 cells) [nM] | GI50 (HL-60 cells) [nM] | GI50 (A549 cells) [nM] | GI50 (Jurkat cells [2]) [nM] | GI50 (RS4,11 cells) [nM] | GI50 (HT-29 cells) [nM] | GI50 (MCF-7 cells [3]) [nM] | GI50 (HeLa cells) [nM] | GI50 (Human fibroblasts) [nM] | IC50 (purified human ChoKα1) [nM] | GI50 (PBL (+Pha)) [nM] | GI50 (PBL (resting)) [nM] | GI50 (HUVEC) [nM] | Apoptotic cells (annexin-V/PI) (MDA-MB-231 cells [4]) | Apoptotic cells (annexin-V/PI) (Jurkat cells [5]) | Apoptotic cells (annexin-V/PI) (MCF-7 cells [6]) | Kd (human ChoKα1) [nM] | other results
1 | CN(c1ccccc1)c1cc[n+](Cc2ccc(OCCOc3ccc(C[n+]4ccc(N(C)c5ccccc5)c5ccc(Cl)cc54)cc3)cc2)c2cc(Cl)ccc12 [Compound 10h, 1,1′-(((ethane-1,2-diylbis(oxy))bis(4,1-phenylene))bis(methylene))bis(7-chloro-4-(methyl(phenyl)amino)quinolinium) bromide] | 230 ± 40 | 850 ± 320 | 920 ± 60 | 180 ± 80 | 310 ± 70 | 26 ± 6 | 350 ± 70 | 320 ± 40 | 320 ± 62 | 3700 ± 430 | 2790 ± 170 | 320 ± 30 | 1000 ± 420 | 16000 ± 6600 |  |  |  |  | 
2 | N.N.[Cl][Pt][Cl] [Cis-Pt] |  |  |  |  |  |  |  |  |  |  |  |  |  |  | induce significant apoptosis | induce significant apoptosis | induce significant apoptosis |  | 
3 | COc1cc([C@@H]2c3cc4c(cc3[C@@H](O[C@@H]3O[C@@H]5CO[C@@H](C)O[C@H]5[C@H](O)[C@H]3O)[C@H]3COC(=O)[C@H]23)OCO4)cc(OC)c1O [Etoposide] |  |  |  |  |  |  |  |  |  |  |  |  |  |  | induce significant apoptosis | induce significant apoptosis | induce significant apoptosis |  | 
4 | CN(C)c1cc[n+](Cc2ccc(CCCCc3ccc(C[n+]4ccc(N(C)C)cc4)cc3)cc2)cc1 [MN58b, reference compound] | 310 ± 120 |  | 320 ± 30 | 540 ± 200 | 350 ± 100 | 1000 ± 300 | 1900 ± 400 | 1800 ± 60 | 1900 ± 100 |  |  | 150 ± 50 | 2000 ± 400 | 2100 ± 580 |  |  |  |  | Cell-cycle effect (G1 phase) [7]: significant decrease of the G1 phase; Cells with hypodiploid DNA content (apoptotic cells by cell-cycle analysis) (MDA-MB-231 cells [8]): negligible percentage of apoptotic cells
5 | Clc1ccc2c(N3CCCC3)cc[n+](Cc3ccc(OCCOc4ccc(C[n+]5ccc(N6CCCC6)c6ccc(Cl)cc65)cc4)cc3)c2c1.[Br-].[Br-] [Compound 10l, 1,1′-(((ethane-1,2-diylbis(oxy))bis(4,1-phenylene))bis(methylene))bis(7-chloro-4-(pyrrolidin-1-yl)quinolinium) bromide] | 50 ± 20 | 800 ± 200 | 160 ± 70 | 140 ± 60 | 7 ± 3 | 420 ± 140 | 560 ± 210 | 22 ± 7 | 370 ± 180 | 9600 ± 1300 | 920 ± 10 | 490 ± 150 | 3800 ± 550 | 11400 ± 5900 |  |  |  | 357 ± 39 | Solubility in the mother liquor [9]: insoluble in the mother liquor
6 | CN(c1ccc(Cl)cc1)c1cc[n+](Cc2ccc(OCCOc3ccc(C[n+]4ccc(N(C)c5ccc(Cl)cc5)c5ccccc54)cc3)cc2)c2ccccc12.[Br-].[Br-] [Compound 10g, 1,1′-(((ethane-1,2-diylbis(oxy))bis(4,1-phenylene))bis(methylene))bis(4-((4-chlorophenyl)(methyl)amino)quinolinium) bromide] | 190 ± 9 | 260 ± 10 | 710 ± 240 | 110 ± 18 | 98 ± 31 | 150 ± 40 | 750 ± 120 | 460 ± 63 | 250 ± 60 | 7400 ± 2400 | 3270 ± 660 | 550 ± 110 | 980 ± 250 | 10400 ± 3500 |  |  |  | 517 ± 99 | melting point: 178 to 180 °C
